Tested on in the first series: not listed separately
As to the kind of experiment: Octanol-water distribution coefficient (logD pH 7.4) of the labeled tracer. The series is classed as physicochemical. The conditions noted are these: n-octanol/PBS pH 7.4, room temperature. As to the method:
Approximately 1 MBq of the labeled tracer was dissolved in 1 mL of a 1:1 mixture (by volumes) of phosphate buffered saline (PBS, pH 7.4) and n-octanol in an Eppendorf tube. After vigorous mixing of the suspension for 3 minutes at room temperature, the vial was centrifuged at 15000 g for 5 minutes (Biofuge 15, Heraus Sepatech, Osterode, Germany) and 100 μL aliquots of both layers were measured in a gamma counter. The experiment was repeated at least six times.
In the case of `C[C@@H](O)[C@H](NC(=O)C1CSSCC(NC(=O)C(Cc2ccccc2)NC(=O)CNC(=O)CNC(=O)CNC(=O)C(CC(=O)O)NC(=O)[C@@H](CC(=O)O)NC(=O)C(CCCCN)NC(=O)[C@@H](CNC(=O)C[N+](C)(C)Cc2ccc([Si](F)(C(C)(C)C)C(C)(C)C)cc2)NC(=O)CN2CCN(CC(=O)O)CCN(CC(=O)O)CCN(CC(=O)O)CC2)C(=O)N[C@@H](Cc2ccc(O)cc2)C(=O)NC(Cc2c[nH]c3ccccc23)C(=O)N[C@@H](CCCCN)C(=O)N[C@@H]([C@@H](C)O)C(=O)N1)C(=O)O` (some centres unmarked) [[Lu]45], the “LogDpH=7.4” value is recorded as −2.10 ± 0.08.
The same measure, in the same setting: the same measure for `C[C@@H](O)[C@H](NC(=O)C1CSSCC(NC(=O)C(Cc2ccccc2)NC(=O)CNC(=O)CNC(=O)CNC(=O)C(CC(=O)O)NC(=O)[C@@H](CC(=O)O)NC(=O)C(CCCNC(N)=O)NC(=O)[C@@H](CNC(=O)C[N+](C)(C)Cc2ccc([Si](F)(C(C)(C)C)C(C)(C)C)cc2)NC(=O)CN2CCN(CC(=O)O)CCN(CC(=O)O)CCN(CC(=O)O)CC2)C(=O)N[C@@H](Cc2ccc(O)cc2)C(=O)NC(Cc2c[nH]c3ccccc23)C(=O)N[C@@H](CCCCN)C(=O)N[C@@H]([C@@H](C)O)C(=O)N1)C(=O)O` (some centres unmarked) [[Lu]46]: −2.12 ± 0.05.
Still for that read-out and setting: under `C[C@@H](O)[C@H](NC(=O)C1CSSCC(NC(=O)C(Cc2ccccc2)NC(=O)CNC(=O)CNC(=O)CNC(=O)C(CC(=O)O)NC(=O)[C@@H](CC(=O)O)NC(=O)C(CCC(=O)O)NC(=O)[C@@H](CNC(=O)C[N+](C)(C)Cc2ccc([Si](F)(C(C)(C)C)C(C)(C)C)cc2)NC(=O)CN2CCN(CC(=O)O)CCN(CC(=O)O)CCN(CC(=O)O)CC2)C(=O)N[C@@H](Cc2ccc(O)cc2)C(=O)NC(Cc2c[nH]c3ccccc23)C(=O)N[C@@H](CCCCN)C(=O)N[C@@H]([C@@H](C)O)C(=O)N1)C(=O)O` (some centres unmarked) [[Lu]47] stands −2.29 ± 0.03; under `C[C@@H](O)[C@H](NC(=O)C1CSSCC(NC(=O)C(Cc2ccccc2)NC(=O)[C@@H](CC(N)=O)NC(=O)C(CC(N)=O)NC(=O)[C@@H](CC(=O)O)NC(=O)C(CC(=O)O)NC(=O)[C@@H](CNC(=O)CN2CCN(CC(=O)O)CCN(CC(=O)O)CCN(CC(=O)O)CC2)NC(=O)C[N+](C)(C)Cc2ccc([Si](F)(C(C)(C)C)C(C)(C)C)cc2)C(=O)N[C@@H](Cc2ccc(O)cc2)C(=O)NC(Cc2c[nH]c3ccccc23)C(=O)N[C@@H](CCCCN)C(=O)N[C@@H]([C@@H](C)O)C(=O)N1)C(=O)O` (some centres unmarked) [[Lu]48], −2.19 ± 0.05.
On the same count and under the same terms, the same measure for `C[C@@H](O)[C@H](NC(=O)C1CSSCC(NC(=O)C(Cc2ccccc2)NC(=O)[C@@H](CC(N)=O)NC(=O)C(CC(N)=O)NC(=O)CNC(=O)C(CC(=O)O)NC(=O)[C@@H](CC(=O)O)NC(=O)C(CNC(=O)CN2CCN(CC(=O)O)CCN(CC(=O)O)CCN(CC(=O)O)CC2)NC(=O)C[N+](C)(C)Cc2ccc([Si](F)(C(C)(C)C)C(C)(C)C)cc2)C(=O)N[C@@H](Cc2ccc(O)cc2)C(=O)NC(Cc2c[nH]c3ccccc23)C(=O)N[C@@H](CCCCN)C(=O)N[C@@H]([C@@H](C)O)C(=O)N1)C(=O)O` (some centres unmarked) [[Lu]49]: −2.24 ± 0.06.

A further series deals with T1, SST2 (Homo sapiens, UniProt P30874).
T1 construct: expressed in transfected cells; host or cells: CHO (Chinese hamster ovary) cells
T1 sequence (P30874 whole entry, species assumed): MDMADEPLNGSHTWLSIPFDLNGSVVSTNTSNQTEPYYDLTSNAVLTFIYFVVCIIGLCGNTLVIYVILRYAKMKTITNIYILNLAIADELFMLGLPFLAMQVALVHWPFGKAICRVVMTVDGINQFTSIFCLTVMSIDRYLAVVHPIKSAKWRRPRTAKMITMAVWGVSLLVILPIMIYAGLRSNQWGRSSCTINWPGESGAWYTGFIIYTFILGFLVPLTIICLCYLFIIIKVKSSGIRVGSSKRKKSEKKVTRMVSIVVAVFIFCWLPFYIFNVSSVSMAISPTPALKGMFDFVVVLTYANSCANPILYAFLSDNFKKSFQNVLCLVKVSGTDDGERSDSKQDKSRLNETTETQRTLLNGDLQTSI
The series can be described thus: Determination of IC50: competitive binding against [125I]TOC on SST2-transfected CHO cells. The conditions noted are these: [125I]TOC reference radioligand, 60 min room temperature. As to the method: The SST2-transfected CHO cells were cultivated in Dulbecco's Modified Eagle Medium/Nutrient Mixture F-12 (DMEM/F-12) with Glutamax-I (1:1) (Gibco), supplemented with 10% fetal calf serum (FCS) and maintained at 37° C. in a humidified 5% CO2 atmosphere. […] After removal of the culture medium, the cells were treated once with 300 μL of HBSS-B (Hank's balanced salt solution, Biochrom, Berlin, Germany, with addition of 1% bovine serum albumin (BSA)) and left with 200 μL HBSS-B. Next, 25 μL per well of solutions, containing either HBSS-B (control) or the respective ligand in increasing concentration (10^−10-10^−4 M in HBSS-B, were added with subsequent addition of 25 μL of
[^125I]TOC ([^125I]Tyr^3-Octreotide) (1.0 nM) in HBSS-B. Each concentration is investigated in triplicate. After 60 min incubation at room temperature, the experiment was terminated by removal of the assay medium and consecutive rinsing with 300 μL of cold PBS. The media of both steps were combined in one fraction and represent the amount of unbound radioligand.
Afterwards, the cells were lysed with 300 μL of 1 M NaOH and united with the 300 μL 1 M NaOH of the following wash step. Quantification of bound and unbound radioligand was accomplished in a γ-counter.
By IC50 is commonly meant the concentration needed to halve the response being measured. Low values mean greater potency, high ones weaker potency. The compound `C[C@@H](O)[C@H](NC(=O)C1CSSCC(NC(=O)C(Cc2ccccc2)NC(=O)CNC(=O)CNC(=O)[C@@H](CC(=O)O)NC(=O)C(CC(=O)O)NC(=O)[C@@H](CNC(=O)CC[C@H](C(=O)O)N2CCN(CC(=O)O)CCN(CC(=O)O)CCN(CC(=O)O)CC2)NC(=O)C(CN)NC(=O)c2ccc([Si](F)(C(C)(C)C)C(C)(C)C)cc2)C(=O)N[C@@H](Cc2ccc(O)cc2)C(=O)NC(Cc2c[nH]c3ccccc23)C(=O)N[C@@H](CCCCN)C(=O)N[C@@H]([C@@H](C)O)C(=O)N1)C(=O)O` (some centres unmarked) (natGa complex, metal not drawn) [[Ga]20] had an IC50 of 12.7 ± 1 nM.
Same read-out and setting: the same measure for `C[C@@H](O)[C@H](NC(=O)C1CSSCC(NC(=O)C(Cc2ccccc2)NC(=O)CNC(=O)CNC(=O)CNC(=O)C(CC(=O)O)NC(=O)[C@@H](CC(=O)O)NC(=O)C(CNC(=O)C[N+](C)(C)Cc2ccc([Si](F)(C(C)(C)C)C(C)(C)C)cc2)NC(=O)CN2CCN(CC(=O)O)CCN(CC(=O)O)CCN(CC(=O)O)CC2)C(=O)N[C@@H](Cc2ccc(O)cc2)C(=O)NC(Cc2c[nH]c3ccccc23)C(=O)N[C@@H](CCCCN)C(=O)N[C@@H]([C@@H](C)O)C(=O)N1)C(=O)O` (some centres unmarked) (natGa complex, metal not drawn) [[Ga]44]: 5.45 ± 0.5 nM.
Same read-out and setting: under `C[C@@H](O)[C@H](NC(=O)C1CSSCC(NC(=O)C(Cc2ccccc2)NC(=O)CNC(=O)CNC(=O)CNC(=O)C(CC(=O)O)NC(=O)[C@@H](CC(=O)O)NC(=O)C(CCC(=O)O)NC(=O)[C@@H](CNC(=O)C[N+](C)(C)Cc2ccc([Si](F)(C(C)(C)C)C(C)(C)C)cc2)NC(=O)CN2CCN(CC(=O)O)CCN(CC(=O)O)CCN(CC(=O)O)CC2)C(=O)N[C@@H](Cc2ccc(O)cc2)C(=O)NC(Cc2c[nH]c3ccccc23)C(=O)N[C@@H](CCCCN)C(=O)N[C@@H]([C@@H](C)O)C(=O)N1)C(=O)O` (some centres unmarked) (natGa complex, metal not drawn) [[Ga]47] stands 7.58 ± 0.58 nM.
Same read-out and setting: under `C[C@@H](O)[C@H](NC(=O)C1CSSCC(NC(=O)C(Cc2ccccc2)NC(=O)[C@@H](CC(N)=O)NC(=O)C(CC(N)=O)NC(=O)[C@@H](CC(=O)O)NC(=O)C(CC(=O)O)NC(=O)[C@@H](CNC(=O)CN2CCN(CC(=O)O)CCN(CC(=O)O)CCN(CC(=O)O)CC2)NC(=O)C[N+](C)(C)Cc2ccc([Si](F)(C(C)(C)C)C(C)(C)C)cc2)C(=O)N[C@@H](Cc2ccc(O)cc2)C(=O)NC(Cc2c[nH]c3ccccc23)C(=O)N[C@@H](CCCCN)C(=O)N[C@@H]([C@@H](C)O)C(=O)N1)C(=O)O` (some centres unmarked) (natGa complex, metal not drawn) [[Ga]48] stands 6.1 ± 0.57 nM.
Consider `C[C@@H](O)[C@H](NC(=O)C1CSSCC(NC(=O)C(Cc2ccccc2)NC(=O)[C@@H](CC(N)=O)NC(=O)C(CC(N)=O)NC(=O)CNC(=O)C(CC(=O)O)NC(=O)[C@@H](CC(=O)O)NC(=O)C(CNC(=O)CN2CCN(CC(=O)O)CCN(CC(=O)O)CCN(CC(=O)O)CC2)NC(=O)C[N+](C)(C)Cc2ccc([Si](F)(C(C)(C)C)C(C)(C)C)cc2)C(=O)N[C@@H](Cc2ccc(O)cc2)C(=O)NC(Cc2c[nH]c3ccccc23)C(=O)N[C@@H](CCCCN)C(=O)N[C@@H]([C@@H](C)O)C(=O)N1)C(=O)O` (some centres unmarked) (natGa complex, metal not drawn) [[Ga]49], for which the IC50 worked out at 6.31 ± 0.99 nM.
The same measure, in the same setting: under `C[C@@H](O)[C@H](NC(=O)C1CSSCC(NC(=O)C(Cc2ccccc2)NC(=O)CNC(=O)CNC(=O)CNC(=O)C(CC(=O)O)NC(=O)[C@@H](CC(=O)O)NC(=O)C(CNC(=O)CN2CCN(CC(=O)O)CCN(CC(=O)O)CCN(CC(=O)O)CC2)NC(=O)[C@@H](CN)NC(=O)C[N+](C)(C)Cc2ccc([Si](F)(C(C)(C)C)C(C)(C)C)cc2)C(=O)N[C@@H](Cc2ccc(O)cc2)C(=O)NC(Cc2c[nH]c3ccccc23)C(=O)N[C@@H](CCCCN)C(=O)N[C@@H]([C@@H](C)O)C(=O)N1)C(=O)O` (some centres unmarked) (natGa complex, metal not drawn) [[Ga]51] stands 3.56 ± 0.25 nM; under `C[C@@H](O)[C@H](NC(=O)C1CSSCC(NC(=O)C(Cc2ccccc2)NC(=O)CNC(=O)CNC(=O)CNC(=O)C(CC(=O)O)NC(=O)[C@@H](CC(=O)O)NC(=O)C(CNC(=O)CN2CCN(CC(=O)O)CCN(CC(=O)O)CCN(CC(=O)O)CC2)NC(=O)[C@@H](CN)NC(=O)CNC(=O)C[N+](C)(C)Cc2ccc([Si](F)(C(C)(C)C)C(C)(C)C)cc2)C(=O)N[C@@H](Cc2ccc(O)cc2)C(=O)NC(Cc2c[nH]c3ccccc23)C(=O)N[C@@H](CCCCN)C(=O)N[C@@H]([C@@H](C)O)C(=O)N1)C(=O)O` (some centres unmarked) (natGa complex, metal not drawn) [[Ga]52], 3.69 ± 0.34 nM; under `C[C@@H](O)[C@H](NC(=O)C1CSSCC(NC(=O)C(Cc2ccccc2)NC(=O)CNC(=O)CNC(=O)CNC(=O)C(CC(=O)O)NC(=O)[C@@H](CC(=O)O)NC(=O)C(CNC(=O)CN2CCN(CC(=O)O)CCN(CC(=O)O)CCN(CC(=O)O)CC2)NC(=O)[C@@H](CN)NC(=O)CNC(=O)CNC(=O)C[N+](C)(C)Cc2ccc([Si](F)(C(C)(C)C)C(C)(C)C)cc2)C(=O)N[C@@H](Cc2ccc(O)cc2)C(=O)NC(Cc2c[nH]c3ccccc23)C(=O)N[C@@H](CCCCN)C(=O)N[C@@H]([C@@H](C)O)C(=O)N1)C(=O)O` (some centres unmarked) (natGa complex, metal not drawn) [[Ga]53], 3.4 ± 0.18 nM.
Same read-out and setting: under `C[C@@H](O)[C@H](NC(=O)C1CSSCC(NC(=O)C(Cc2ccccc2)NC(=O)CNC(=O)CNC(=O)[C@@H](CC(=O)O)NC(=O)C(CC(=O)O)NC(=O)[C@@H](CNC(=O)CN2CCN(CC(=O)O)CCN(CC(=O)O)CCN(CC(=O)O)CC2)NC(=O)C(CN)NC(=O)c2ccc([Si](F)(C(C)(C)C)C(C)(C)C)cc2)C(=O)N[C@@H](Cc2ccc(O)cc2)C(=O)NC(Cc2c[nH]c3ccccc23)C(=O)N[C@@H](CCCCN)C(=O)N[C@@H]([C@@H](C)O)C(=O)N1)C(=O)O` (some centres unmarked) (natLu complex, metal not drawn) [[Lu]19] stands 13.3 ± 1.97 nM.

The record behind these values is patent US20240317780A1, “RADIOPHARMACEUTICAL SOMATOSTATIN RECEPTOR LIGANDS AND PRECURSORS THEREOF” (Technische Universität München, priority 2021, published 2024).
